Assay results as given in patent US6831199B1, “Pyrimidine compounds and derivatives thereof” (G. D. Searle & Co., priority 1995, dated 2004).
Structures can show the parent of a compound that is named as a salt. Where two headings read alike, the source gives them in different places.

Columns and labels:
[1] = target: T1, Human vitronectin receptor (αvβ3) (Homo sapiens, UniProt P05106+P06756); experiment: Vitronectin adhesion assay (solid phase receptor assay, competition with biotinylated vitronectin); assay type: binding; conditions: read-out: AvB3 IC50
T1 construct: Human vitronectin receptor (αvβ3) was purified from human placenta; from tissue; host or cells: human placenta
Procedure, shortened: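 Purified human αvβ3 coated overnight at 4 °C in TBS with 1.0 mM Ca++, Mg++, Mn++, pH 7.4; compounds (top final 1.0×10^−4 M) competed with 1 nM biotinylated vitronectin for 2 h at room temperature. Bound ligand detected by HRP anti-biotin/OPD at A450; values normalized to no-competitor controls, four-parameter curve fit.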

[2] = target: T2, Human fibrinogen receptor (αIIbβ3) (Homo sapiens, UniProt P05106+P08514); experiment: Purified IIb/IIIa receptor assay (solid phase receptor assay, competition with biotinylated vitronectin); assay type: binding; conditions: read-out: IIb/IIIa IC50
T2 construct: Human fibrinogen receptor (αIIbβ3) was purified from outdated platelets; from tissue; host or cells: outdated human platelets
Procedure, shortened: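 Competition format: 1 nM biotinylated vitronectin plus test compound (highest 1.0×10^−4 M), 2 h at room temperature on wells coated with platelet-derived αIIbβ3. Buffer was TBS containing 1.0 mM Ca, Mg, Mn, pH 7.4. HRP anti-biotin readout at 450 nm; normalized to maximum binding, four-parameter curve fit.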

platelet rich plasma = experiment: Human platelet rich plasma assay (ADP induced platelet aggregation); assay type: cell-based; conditions: read-out: Human PRP
Procedure: Human Platelet Rich Plasma Assays
Healthy aspirin free donors were selected from a pool of volunteers. The harvesting of platelet rich plasma and subsequent ADP induced platelet aggregation assays were performed as described in Zucker, M. B., “Platelet Aggregation Measured by the Photometric Method”, Methods in Enzymology 169(1989):117-133. Standard venipuncture techniques using a butterfly allowed the withdrawal of 45 mL of whole blood into a 60 mL syringe containing 5 mL of 3.8% trisodium citrate. Following thorough mixing in the syringe, the anti-coagulated whole blood was transferred to a 50 mL conical polyethylene tube. The blood was centrifuged at room temperature for 12 minutes at 200×g to sediment non-platelet cells. Platelet rich plasma was removed to a polyethylene tube and stored at room temperature until used. Platelet poor plasma was obtained from a second centrifugation of the remaining blood at 2000×g for 15 minutes. Platelet counts are typically 300,000 to 500,000 per microliter. Platelet rich plasma (0.45 mL) was aliquoted into siliconized cuvettes and stirred (1100 rpm) at 37° C. for 1 minute prior to adding 50 uL of pre-diluted test compound. After 1 minute of mixing, aggregation was initiated by the addition of 50 uL of 200 uM ADP. Aggregation was recorded for 3 minutes in a Payton dual channel aggregometer (Payton Scientific, Buffalo, N.Y.). The percent inhibition of maximal response (saline control) for a series of test compound dilutions was used to determine a dose response curve.

[3] = Homo sapiens, Platelet, ADP induced platelet aggregation in human platelet rich plasma

Compound | IC50 [1] [nM] | IC50 [2] [nM] | IC50 (platelet rich plasma; [3]) [nM] | IC50 (platelet rich plasma; Homo sapiens, Platelet) [nM] | IC50 (platelet rich plasma; ADP induced platelet aggregation in human platelet rich plasma) [nM]
N=C(N)Nc1ccc(Cl)c(C(=O)NCC(=O)NC(CC(=O)O)c2ccccc2)c1 (stereo not drawn) [Example 155, β-[[2-[[[5-[(aminoiminomethyl)amino]-2-chlorophenyl]carbonyl]amino]acetyl]amino]benzenepropanoic acid, trifluoroacete salt] | 5.05 | 81.1 | > 200000 | – | –
O=C(O)CC(NC(=O)CNC(=O)c1cccc(NC2=NCCCN2)c1)c1cc(Cl)cc(Cl)c1 (racemic) [Example 200, (±)3,5-dichloro-β-[[2-[[[3-[(1,4,5,6-tetrahydropyrimidin-2-yl)amino]phenyl]carbonyl]amino]acetyl]amino]benzenepropanoic acid, trifluoroacetate salt] | 0.48 | 1100 | > 200000 | – | –
NS(=O)(=O)c1ccc(CNC(=O)Nc2cccc(C(=O)NCC(=O)NC(CC(=O)O)c3cccnc3)c2)cc1 (stereo not drawn) [Example 126, β-[[2-[[[3-[[[[(4-(aminosulfonyl)phenylmethyl]amino]carbonyl]amino]phenyl]carbonyl]amino]acetyl]amino]pyridine-3-propanoic acid, trifluoroacetate salt] | 2.48 | 2010 | > 200000 | – | –
O=C(O)CC(NC(=O)CNC(=O)c1cccc(NC(=O)NCc2ccccc2)c1)c1ccc2c(c1)OCO2 (stereo not drawn) [Example 122, β-[[2-[[[3-[[[(phenylmethyl)amino]carbonyl]amino]phenyl]carbonyl]amino]acetyl]amino]-1,3-benzodioxole-5-propanoic acid] | 0.79 | 420 | – | > 20000 | –
N=C(N)Nc1cccc(C(=O)NCC(=O)NC(CCSc2ccccc2C(=O)O)CC(=O)O)c1 (racemic) [60(B), (±)2-[3-[[2-[[[3-[(aminoiminomethyl)amino]phenyl)carbonyl]amino]acetyl]amino]-4-carboxybutyl]thio]benzoic acid, trifluoroacetate salt] | 1.21 | 72.7 | – | – | > 200000
C#C[C@H](CC(=O)O)NC(=O)CNC(=O)c1c(F)c(F)cc(NC(=N)N)c1F [Example 35, βS-[[2-[[[3-[(aminoiminomethyl)amino]-2,5,6-trifluorophenyl]carbonyl]amino]acetyl]amino]-4-pentynoic acid, trifluoroacetate salt] | 57.1 | 6.21 | 69500 | – | –
O=C(O)CC(NC(=O)CNC(=O)c1cccc(NC2=NCCCCC2)c1)c1cc(Cl)cc(Cl)c1O (racemic) [Example 232, (±)3,5-dichloro-2-hydroxy-β-[[2-[[[3-[(3,4,5,6-tetrahydro-2H-azepin-7-yl)amino]phenyl]carbonyl]amino]acetyl]amino]benzenepropanoic acid, trifluoroacetate salt, monohydrate] | 19.1 | 12100 | > 200000 | – | –
N#C/N=C(\NCc1ccccc1)Nc1cccc(C(=O)NCC(=O)NC(CC(=O)O)c2ccccc2)c1 (stereo not drawn) [Example 136, β-[[2-[[[3-[[(cyanoimino)[(phenylmethyl)amino]methyl]amino]phenyl]carbonyl]amino]acetyl]amino]benzenepropanoic acid] | 54.4 | 14200 | > 20000 | – | –
CCN/C(=N\C#N)Nc1cccc(C(=O)NCC(=O)NC(CC(=O)O)c2ccccc2)c1 (stereo not drawn) [Example 139, β-[[2-[[[3-[[(cyanoimino)(ethylamino)methyl]amino]phenyl]carbonyl]amino]acetyl]amino]benzenepropanoic acid] | 23.8 | 16100 | > 200000 | – | –
CN(CC(=O)NC(CC(=O)O)c1cccnc1)C(=O)c1cccc(NC(=N)N)c1 (racemic) [Example 80, (±)β-[[2-[[[3-[(aminoiminomethyl)amino]phenyl]carbonyl]methylamino]acetyl]amino]pyridine-3-propanoic acid, bis(trifluoroacetate)salt] | 9.49 | 4.35 | 30000 | – | –
O=C(O)CC(NC(=O)CNC(=O)c1cccc(NC(=O)NCCc2ccccc2)c1)c1cccnc1 (stereo not drawn) [Example 130, β-[[2-[[[3-[[[(2-phenylethyl)amino]carbonyl]amino]phenyl]carbonyl]amino]acetyl]amino]pyridine-3-propanoic acid, trifluoroacetate salt] | 47 | 2690 | > 200000 | – | –

Further lines, with some results ahead:

IC50 [1] [nM] | IC50 [2] [nM] | IC50 (platelet rich plasma; [3]) [nM] | Compound | IC50 (platelet rich plasma; Homo sapiens, Platelet) [nM] | IC50 (platelet rich plasma; ADP induced platelet aggregation in human platelet rich plasma) [nM]
0.33 | 998 | > 20000 | C#C[C@H](CC(=O)O)NC(=O)CNC(=O)c1cccc(NC(=O)NCc2ccccc2)c1 [Example 44, 3S-[[2-[[[3-[[[(phenylmethyl)amino]carbonyl]amino]phenyl]carbonyl]amino]acetyl]amino]-4-pentynoic acid] | – | –
5.74 | 631 | > 200000 | N=C(N)Nc1cc(C(=O)NCC(=O)NC(CC(=O)O)c2ccccc2)ccc1Cl (stereo not drawn) [Example 150, β-[[2-[[[3-[(aminoiminomethyl)amino]-4-chlorophenyl)carbonyl]amino]acetyl]amino]benzenepropanoic acid] | – | –
54.6 | 930 | > 200000 | N=C(N)Nc1cccc(C(=O)NCC(=O)NC(CC(=O)O)CC(=O)O)c1 [Example 53, 3-[[2-[[[3-[(aminoiminomethyl)amino]phenyl]carbonyl]amino]acetyl]amino]pentanedioic acid, trifluoroacetate salt] | – | –
4.77 | 117 | > 200000 | N=C(N)Nc1cccc(C(=O)NCC(=O)NC(CC(=O)O)c2ccco2)c1 (racemic) [Example 55, (±)β-[[2-[[[3-[(aminoiminomethyl)amino]phenyl]carbonyl]amino]acetyl]amino]furan-2-propanoic acid, trifluoroacetate salt] | – | –
3.09 | 125 | > 200000 | C#C[C@H](CC(=O)O)NC(=O)CNC(=O)c1cccc(N/C(=N/C#N)NC)c1 [Example 141, 3S-[[2-[[[3-[[(cyanoimino)(methylamino)methyl]amino]phenyl]carbonyl]amino]acetyl]amino]-4-pentynoic acid] | – | –
10.7 | 175 | > 200000 | COC(=O)CC(CC(=O)O)NC(=O)CNC(=O)c1cccc(NC(=N)N)c1 (racemic) [Example 54, (±)hydrogen methyl 3-[[2-[[[3-[(aminoiminomethyl)amino]phenyl]carbonyl]amino]acetyl]amino]pentanedioate, trifluoroacetate salt] | – | –
1.42 | 28.4 | > 200000 | COC(=O)c1ccccc1SCCC(CC(=O)O)NC(=O)CNC(=O)c1cccc(NC(=N)N)c1 (racemic) [Example 62, (±)methyl 2-[[3-[2-[[[3-[(aminoiminomethyl)amino]phenyl]carbonyl]amino]acetyl]amino]-4-carboxybutyl]thio]benzoate, trifluoroacetate salt] | – | –
4.62 | 1340 | > 200000 | NC(=O)/N=C(/N)Nc1cccc(C(=O)NCC(=O)NC(CC(=O)O)c2cc(Cl)cc(Cl)c2)c1 (stereo not drawn) [Example 162, β-[[(2-[[[3-[[amino(aminocarbonyl)imino]methyl]amino]phenyl]carbonyl]amino]acetyl]amino]-3,5-dichlorobenzenepropanoic acid, trifluoroacetate salt] | – | –
5.48 | 125 | > 200000 | N=C(N)Nc1cccc(C(=O)NCC(=O)N[C@H](CSc2ccccc2)CC(=O)O)c1 [Example 68, 3S-[[2-[[[3-[(aminoiminomethyl)amino]phenyl]carbonyl]amino]acetyl]amino]-4-(phenylthio)butanoic acid, trifluoroacetate salt] | – | –
2.02 | 112 | > 200000 | COc1ccc(C(CC(=O)O)NC(=O)CNC(=O)c2cccc(NC(=N)N)c2)c(O)c1 (racemic) [Example 222, (±)β-[[2-[[[3-[(aminoiminomethyl)amino]phenyl]carbonyl]amino]acetyl]amino]-2-hydroxy-4-methoxybenzenepropanoic acid] | – | –
1.04 | 15.9 | 80000 | N=C(N)Nc1cccc(C(=O)NCC(=O)NC(CC(=O)O)c2ccc3c(c2)OCO3)c1 (racemic) [Example 6, (±)β-[[2-[[[3-[(aminoiminomethyl)amino]phenyl]carbonyl]amino]acetyl]amino]-1,3-benzodioxole-5-propanoic acid, trifluoroacetate salt] | – | –
